Reference: paper PMC6286256 (Cancer chemotherapy and pharmacology, 2018)

Columns and labels:
mTOR = details: cellular assays; cited from earlier work
PI3K/mTOR = details: cellular assays; cited from earlier work
advanced solid tumors = assay: Best overall response, all patients; type: in vivo, human; details: single agent and combination
[1] = test system: patients with advanced solid tumors; assay: Safety and tolerability; type: in vivo, human; details: single-agent SDS sachet cohort, all doses, 61 patients
[2] = human, in vivo
[3] = test system: patients with advanced solid tumors; details: single-agent BEZ235, oral once daily, continuous 28-day cycles
solid tumors = details: cited from earlier work

SMILES	concentration at which mTOR inhibition predominates (mTOR) [nmol/L]	concentration at which dual PI3K/mTOR blockade is observed (PI3K/mTOR)	Patients with PR as best overall response (advanced solid tumors; 5 patients) [%]	Patients with SD as best overall response (advanced solid tumors; 62 patients) [%]	Diarrhea, frequency [1] [%]	Nausea, frequency [1] [%]	Vomiting, frequency [1] [%]	Bioavailability [2]	MTD [3] [mg/day]	Incidence of stomatitis (solid tumors)
Cn1c(=O)n(-c2ccc(C(C)(C)C#N)cc2)c2c3cc(-c4cnc5ccccc5c4)ccc3ncc21 [BEZ235]	< 100	≈ 500 nmol/L	2.7	33.9	75.4	80.3	63.9	low bioavailability	1200	
CO[C@H]1C[C@@H]2CC[C@@H](C)[C@@](O)(O2)C(=O)C(=O)N2CCCC[C@H]2C(=O)O[C@H]([C@H](C)C[C@@H]2CC[C@@H](OCCO)[C@H](OC)C2)CC(=O)[C@H](C)/C=C(\C)[C@@H](O)[C@@H](OC)C(=O)[C@H](C)C[C@H](C)/C=C/C=C/C=C/1C [everolimus]										59–71%
